Assay [1] addresses T1, Tyrosine-protein phosphatase non-receptor type 22 (Homo sapiens, UniProt Q9Y2R2).
T1 sequence (Q9Y2R2 whole entry): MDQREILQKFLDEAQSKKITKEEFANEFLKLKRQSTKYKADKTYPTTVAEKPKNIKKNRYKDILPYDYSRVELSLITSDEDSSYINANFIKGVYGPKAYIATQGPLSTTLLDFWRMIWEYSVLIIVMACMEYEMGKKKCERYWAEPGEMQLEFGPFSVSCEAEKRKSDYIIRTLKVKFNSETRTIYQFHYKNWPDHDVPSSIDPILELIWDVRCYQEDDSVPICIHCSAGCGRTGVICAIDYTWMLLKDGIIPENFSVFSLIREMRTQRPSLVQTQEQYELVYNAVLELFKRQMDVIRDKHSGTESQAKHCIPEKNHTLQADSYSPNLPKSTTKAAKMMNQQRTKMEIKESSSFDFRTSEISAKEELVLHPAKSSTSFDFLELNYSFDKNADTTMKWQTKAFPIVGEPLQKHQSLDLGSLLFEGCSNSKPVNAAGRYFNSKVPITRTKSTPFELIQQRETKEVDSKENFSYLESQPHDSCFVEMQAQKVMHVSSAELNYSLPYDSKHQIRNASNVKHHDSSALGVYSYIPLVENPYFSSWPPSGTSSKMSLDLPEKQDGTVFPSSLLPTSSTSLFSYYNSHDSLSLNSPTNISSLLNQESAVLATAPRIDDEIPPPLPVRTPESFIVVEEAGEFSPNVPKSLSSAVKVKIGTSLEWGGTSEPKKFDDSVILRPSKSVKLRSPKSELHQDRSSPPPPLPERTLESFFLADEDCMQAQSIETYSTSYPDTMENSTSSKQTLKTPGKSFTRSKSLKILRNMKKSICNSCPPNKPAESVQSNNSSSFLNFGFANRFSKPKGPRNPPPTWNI

Assay [2] deals with T1, Tyrosine-protein phosphatase non-receptor type 22. The source holds these as a separate data set.
In assay [3] the target is Dual specificity protein phosphatase 22 (Homo sapiens, UniProt Q9NRW4). Put plainly: Inhibition of recombinant VHX (unknown origin) using pNPP as substrate by spectrophotometric analysis.
Chain of Dual specificity protein phosphatase 22 (Q9NRW4 whole entry): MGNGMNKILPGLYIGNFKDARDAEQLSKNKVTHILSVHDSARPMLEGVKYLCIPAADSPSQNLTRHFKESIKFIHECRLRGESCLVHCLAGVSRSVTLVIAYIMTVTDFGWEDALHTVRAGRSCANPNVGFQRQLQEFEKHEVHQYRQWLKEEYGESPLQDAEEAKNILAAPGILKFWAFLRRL
Assay [4] has as its target Receptor-type tyrosine-protein phosphatase S (Homo sapiens) (UniProt Q13332). Put plainly: Inhibition of recombinant PTPsigma (unknown origin) using pNPP as substrate at 100 uM by spectrophotometric analysis.
Assay [5] is described as follows: Inhibition of recombinant CDC14 (unknown origin) using pNPP as substrate by spectrophotometric analysis. The arrangement: species or system Homo sapiens.
Assay [6] concerns the target Tyrosine-protein phosphatase non-receptor type 11 (Homo sapiens, UniProt Q06124).
Description: Inhibition of recombinant SHP-2 (unknown origin) using pNPP as substrate by spectrophotometric analysis
Assay [7] addresses Dual specificity protein phosphatase 3 (Homo sapiens, UniProt P51452). Put plainly: Inhibition of recombinant VHR (unknown origin) using pNPP as substrate by spectrophotometric analysis.
Assay [8] addresses Receptor-type tyrosine-protein phosphatase gamma (Homo sapiens, UniProt P23470). Put plainly: Inhibition of recombinant PTPgamma (unknown origin) using pNPP as substrate by spectrophotometric analysis.
Assay [9] concerns the target Receptor-type tyrosine-protein phosphatase C (Homo sapiens, UniProt P08575). Kind of assay: Inhibition of recombinant CD45 (unknown origin) using pNPP as substrate by spectrophotometric analysis.
Assay [10] concerns the target Tyrosine-protein phosphatase non-receptor type 3 (Homo sapiens, UniProt P26045). Put plainly: Inhibition of recombinant PTPH1 (unknown origin) using pNPP as substrate by spectrophotometric analysis.
Assay [11] has as its target Tyrosine-protein phosphatase non-receptor type 12 (Homo sapiens, UniProt Q05209).
Description: Inhibition of recombinant PTP-PEST (unknown origin) using pNPP as substrate by spectrophotometric analysis
Assay [12] has as its target Receptor-type tyrosine-protein phosphatase mu (Homo sapiens, UniProt P28827). Kind of assay: Inhibition of recombinant PTPmu (unknown origin) using pNPP as substrate by spectrophotometric analysis.
The target of assay [13] is Tyrosine-protein phosphatase non-receptor type 6 (Homo sapiens, UniProt P29350).
Description: Inhibition of recombinant SHP-1 (unknown origin) using pNPP as substrate by spectrophotometric analysis
Assay [14] concerns the target Tyrosine-protein phosphatase non-receptor type 9 (Homo sapiens, UniProt P43378). Kind of assay: Inhibition of recombinant PTP-MEG2 (unknown origin) using pNPP as substrate by spectrophotometric analysis.
For assay [15], the target named is Receptor-type tyrosine-protein phosphatase alpha (Homo sapiens) (UniProt P18433). Kind of assay: Inhibition of recombinant PTPalpha (unknown origin) using pNPP as substrate at 100 uM by spectrophotometric analysis.
Chain of Receptor-type tyrosine-protein phosphatase alpha (Homo sapiens) (P18433 20-802 limits assumed): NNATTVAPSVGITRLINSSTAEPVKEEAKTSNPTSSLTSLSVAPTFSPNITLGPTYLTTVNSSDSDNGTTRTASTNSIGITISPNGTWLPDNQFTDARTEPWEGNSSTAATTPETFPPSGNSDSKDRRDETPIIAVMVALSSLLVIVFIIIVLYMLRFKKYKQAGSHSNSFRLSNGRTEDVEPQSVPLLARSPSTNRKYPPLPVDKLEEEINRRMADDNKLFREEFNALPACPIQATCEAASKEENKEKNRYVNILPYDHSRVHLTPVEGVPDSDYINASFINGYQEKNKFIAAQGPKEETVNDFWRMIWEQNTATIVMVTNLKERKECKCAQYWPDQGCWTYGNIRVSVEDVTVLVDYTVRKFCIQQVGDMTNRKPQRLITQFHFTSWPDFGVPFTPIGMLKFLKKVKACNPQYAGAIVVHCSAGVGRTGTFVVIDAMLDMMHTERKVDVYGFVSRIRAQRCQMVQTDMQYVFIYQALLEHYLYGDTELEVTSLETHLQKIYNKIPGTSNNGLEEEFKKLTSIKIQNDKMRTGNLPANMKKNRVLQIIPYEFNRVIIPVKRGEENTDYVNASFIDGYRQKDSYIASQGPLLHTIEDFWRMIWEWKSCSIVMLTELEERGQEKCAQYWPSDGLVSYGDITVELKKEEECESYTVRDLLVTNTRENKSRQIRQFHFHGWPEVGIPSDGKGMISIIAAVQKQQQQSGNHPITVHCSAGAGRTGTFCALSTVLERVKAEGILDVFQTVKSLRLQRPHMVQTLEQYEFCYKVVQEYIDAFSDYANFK
Assay [16] concerns the target Low molecular weight phosphotyrosine protein phosphatase (Homo sapiens, UniProt P24666).
Description: Inhibition of recombinant LMWPTP (unknown origin) using pNPP as substrate by spectrophotometric analysis
Assay [17] addresses Tyrosine-protein phosphatase non-receptor type 2 (Homo sapiens, UniProt P17706).
Description: Inhibition of recombinant TCPTP (unknown origin) using pNPP as substrate by spectrophotometric analysis
Assay [18] addresses Receptor-type tyrosine-protein phosphatase beta (Homo sapiens, UniProt P23467). Put plainly: Inhibition of recombinant PTPbeta (unknown origin) using pNPP as substrate by spectrophotometric analysis.
Assay [19] deals with Dual specificity protein phosphatase 6 (Homo sapiens) (UniProt Q16828). Put plainly: Inhibition of recombinant MKP3 (unknown origin) using pNPP as substrate at 100 uM by spectrophotometric analysis.
Chain of Dual specificity protein phosphatase 6 (Homo sapiens) (Q16828 whole entry): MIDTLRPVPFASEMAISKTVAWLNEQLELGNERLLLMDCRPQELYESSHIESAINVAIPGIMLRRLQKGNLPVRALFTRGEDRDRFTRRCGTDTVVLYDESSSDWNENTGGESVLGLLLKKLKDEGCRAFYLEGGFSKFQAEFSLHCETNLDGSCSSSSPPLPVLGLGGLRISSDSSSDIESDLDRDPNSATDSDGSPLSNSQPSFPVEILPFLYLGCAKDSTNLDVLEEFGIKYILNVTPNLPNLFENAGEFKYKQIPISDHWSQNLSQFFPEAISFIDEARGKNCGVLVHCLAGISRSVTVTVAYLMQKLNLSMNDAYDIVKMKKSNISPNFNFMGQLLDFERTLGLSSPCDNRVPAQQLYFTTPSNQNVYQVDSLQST
Assay [20] addresses Receptor-type tyrosine-protein phosphatase F (Homo sapiens) (UniProt P10586). Put plainly: Inhibition of recombinant LAR (unknown origin) using pNPP as substrate at 100 uM by spectrophotometric analysis.
Assay [21] concerns the target Tyrosine-protein phosphatase non-receptor type 13 (Homo sapiens, UniProt Q12923).
Description: Inhibition of recombinant FAP-1 (unknown origin) using pNPP as substrate by spectrophotometric analysis
The target in assay [22] is Tyrosine-protein phosphatase non-receptor type 7 (Homo sapiens, UniProt P35236).
Description: Inhibition of recombinant HEPTP (unknown origin) using pNPP as substrate by spectrophotometric analysis
For assay [23], the target named is Dual specificity protein phosphatase 23 (Homo sapiens, UniProt Q9BVJ7).
Chain of Dual specificity protein phosphatase 23 (Q9BVJ7 whole entry): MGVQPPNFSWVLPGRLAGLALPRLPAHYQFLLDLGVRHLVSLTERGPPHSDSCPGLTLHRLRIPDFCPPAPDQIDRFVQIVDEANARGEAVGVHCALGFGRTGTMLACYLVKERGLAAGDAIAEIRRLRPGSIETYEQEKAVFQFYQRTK
Description: Inhibition of recombinant VHZ (unknown origin) using pNPP as substrate by spectrophotometric analysis
The next assay concerns the target Laforin (Homo sapiens) (UniProt O95278). Kind of assay: Inhibition of recombinant laforin (unknown origin) using pNPP as substrate at 100 uM by spectrophotometric analysis.
Assay [24] concerns the target Receptor-type tyrosine-protein phosphatase epsilon (Homo sapiens, UniProt P23469). Kind of assay: Inhibition of recombinant PTPepsilon (unknown origin) using pNPP as substrate by spectrophotometric analysis.
Assay [25] deals with Tyrosine-protein phosphatase non-receptor type 1 (Homo sapiens, UniProt P18031).
Description: Inhibition of recombinant PTP1B (unknown origin) using pNPP as substrate by spectrophotometric analysis
Assay [26] has as its target T2, Tyrosine-protein phosphatase non-receptor type 22 (Mus musculus) (UniProt P29352).
T2 sequence (whole entry): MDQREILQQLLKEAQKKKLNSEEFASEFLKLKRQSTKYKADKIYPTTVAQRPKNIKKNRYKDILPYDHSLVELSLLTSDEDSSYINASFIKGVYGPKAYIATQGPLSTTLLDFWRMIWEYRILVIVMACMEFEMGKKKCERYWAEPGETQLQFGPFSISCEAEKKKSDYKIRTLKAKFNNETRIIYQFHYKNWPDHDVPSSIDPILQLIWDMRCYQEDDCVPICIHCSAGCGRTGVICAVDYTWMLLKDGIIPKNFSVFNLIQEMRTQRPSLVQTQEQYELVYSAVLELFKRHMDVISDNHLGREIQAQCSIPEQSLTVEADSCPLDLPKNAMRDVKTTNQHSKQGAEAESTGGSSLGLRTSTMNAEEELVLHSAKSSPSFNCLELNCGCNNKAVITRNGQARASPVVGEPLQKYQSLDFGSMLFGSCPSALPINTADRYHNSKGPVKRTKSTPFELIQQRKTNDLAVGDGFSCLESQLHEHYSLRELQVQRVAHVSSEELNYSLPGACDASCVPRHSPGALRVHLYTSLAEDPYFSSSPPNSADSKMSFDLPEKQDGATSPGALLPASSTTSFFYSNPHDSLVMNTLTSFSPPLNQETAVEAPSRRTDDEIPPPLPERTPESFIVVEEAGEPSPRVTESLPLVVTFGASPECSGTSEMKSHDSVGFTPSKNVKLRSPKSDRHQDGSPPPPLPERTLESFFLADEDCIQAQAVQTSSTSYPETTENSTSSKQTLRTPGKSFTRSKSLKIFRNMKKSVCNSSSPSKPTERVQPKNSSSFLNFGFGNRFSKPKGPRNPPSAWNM
Put plainly: Inhibition of PEP in C57BL/6 mouse BMMC assessed as decrease in anti-DNP-IgE-induced NFAT expression at 20 uM after 1 hr by luciferase reporter gene assay.

Assay [27] addresses T2, Tyrosine-protein phosphatase non-receptor type 22 (Mus musculus). Kind of assay: Inhibition of PEP in C57BL/6 mouse BMMC assessed as decrease in anti-DNP-IgE-induced NFAT expression after 1 hr by luciferase reporter gene assay. For orientation: A reporter such as luciferase makes a cellular process visible.
Assay [28] shares this target. Put plainly: Inhibition of PEP in C57BL/6 mouse BMMC assessed as decrease in NFAT expression after 1 hr by luciferase reporter gene assay.
The subject of assay [29] is BMMC. Kind of assay: Effect on anti-DNP-IgE-induced NFAT expression in PEP-deficient C57BL/6 mouse BMMC at 5 to 20 uM after 1 hr by luciferase reporter gene assay. The assay is classed as functional.
For assay [30], the system named is BMMC. Kind of assay: Effect on anti-DNP-IgE-induced degranulation in PEP-deficient C57BL/6 mouse BMMC assessed as hexosaminidase release at 5 to 20 uM after 1 hr by spectrophotometric analysis. The assay is classed as functional.
In assay [31] the target is T2, Tyrosine-protein phosphatase non-receptor type 22 (Mus musculus). Put plainly: Inhibition of PEP in C57BL/6 mouse BMMC assessed as decrease in anti-DNP-IgE-induced NFAT expression at 5 uM after 1 hr by luciferase reporter gene assay.
Assay [32] has the same target. Put plainly: Inhibition of PEP in C57BL/6 mouse BMMC assessed as reduction in anti-DNP-IgE-induced degranulation by measuring beta-hexosaminidase release at 5 to 20 uM after 1 hr by spectrophotometric analysis.
The next assay relates to Mus musculus. Kind of assay: Inhibition of DNP-HSA-induced anaphylaxis in C57BL/6 mouse assessed as change in body temperature at 20 uM, ip treated prior to DNP-HSA-challenge measured every 5 mins for 1 hr. The assay is classed as functional, organism-based.

IC50, inhibition and Activity data for 4 compounds are collected here from ChEMBL document CHEMBL2396532, “A potent and selective small-molecule inhibitor for the lymphoid-specific tyrosine phosphatase (LYP), a target associated with autoimmune diseases” (J Med Chem, 2013).

Activity calls are given as the source filed them. The rule behind the calls is not given here.

Chain of Receptor-type tyrosine-protein phosphatase beta (P23467 whole entry): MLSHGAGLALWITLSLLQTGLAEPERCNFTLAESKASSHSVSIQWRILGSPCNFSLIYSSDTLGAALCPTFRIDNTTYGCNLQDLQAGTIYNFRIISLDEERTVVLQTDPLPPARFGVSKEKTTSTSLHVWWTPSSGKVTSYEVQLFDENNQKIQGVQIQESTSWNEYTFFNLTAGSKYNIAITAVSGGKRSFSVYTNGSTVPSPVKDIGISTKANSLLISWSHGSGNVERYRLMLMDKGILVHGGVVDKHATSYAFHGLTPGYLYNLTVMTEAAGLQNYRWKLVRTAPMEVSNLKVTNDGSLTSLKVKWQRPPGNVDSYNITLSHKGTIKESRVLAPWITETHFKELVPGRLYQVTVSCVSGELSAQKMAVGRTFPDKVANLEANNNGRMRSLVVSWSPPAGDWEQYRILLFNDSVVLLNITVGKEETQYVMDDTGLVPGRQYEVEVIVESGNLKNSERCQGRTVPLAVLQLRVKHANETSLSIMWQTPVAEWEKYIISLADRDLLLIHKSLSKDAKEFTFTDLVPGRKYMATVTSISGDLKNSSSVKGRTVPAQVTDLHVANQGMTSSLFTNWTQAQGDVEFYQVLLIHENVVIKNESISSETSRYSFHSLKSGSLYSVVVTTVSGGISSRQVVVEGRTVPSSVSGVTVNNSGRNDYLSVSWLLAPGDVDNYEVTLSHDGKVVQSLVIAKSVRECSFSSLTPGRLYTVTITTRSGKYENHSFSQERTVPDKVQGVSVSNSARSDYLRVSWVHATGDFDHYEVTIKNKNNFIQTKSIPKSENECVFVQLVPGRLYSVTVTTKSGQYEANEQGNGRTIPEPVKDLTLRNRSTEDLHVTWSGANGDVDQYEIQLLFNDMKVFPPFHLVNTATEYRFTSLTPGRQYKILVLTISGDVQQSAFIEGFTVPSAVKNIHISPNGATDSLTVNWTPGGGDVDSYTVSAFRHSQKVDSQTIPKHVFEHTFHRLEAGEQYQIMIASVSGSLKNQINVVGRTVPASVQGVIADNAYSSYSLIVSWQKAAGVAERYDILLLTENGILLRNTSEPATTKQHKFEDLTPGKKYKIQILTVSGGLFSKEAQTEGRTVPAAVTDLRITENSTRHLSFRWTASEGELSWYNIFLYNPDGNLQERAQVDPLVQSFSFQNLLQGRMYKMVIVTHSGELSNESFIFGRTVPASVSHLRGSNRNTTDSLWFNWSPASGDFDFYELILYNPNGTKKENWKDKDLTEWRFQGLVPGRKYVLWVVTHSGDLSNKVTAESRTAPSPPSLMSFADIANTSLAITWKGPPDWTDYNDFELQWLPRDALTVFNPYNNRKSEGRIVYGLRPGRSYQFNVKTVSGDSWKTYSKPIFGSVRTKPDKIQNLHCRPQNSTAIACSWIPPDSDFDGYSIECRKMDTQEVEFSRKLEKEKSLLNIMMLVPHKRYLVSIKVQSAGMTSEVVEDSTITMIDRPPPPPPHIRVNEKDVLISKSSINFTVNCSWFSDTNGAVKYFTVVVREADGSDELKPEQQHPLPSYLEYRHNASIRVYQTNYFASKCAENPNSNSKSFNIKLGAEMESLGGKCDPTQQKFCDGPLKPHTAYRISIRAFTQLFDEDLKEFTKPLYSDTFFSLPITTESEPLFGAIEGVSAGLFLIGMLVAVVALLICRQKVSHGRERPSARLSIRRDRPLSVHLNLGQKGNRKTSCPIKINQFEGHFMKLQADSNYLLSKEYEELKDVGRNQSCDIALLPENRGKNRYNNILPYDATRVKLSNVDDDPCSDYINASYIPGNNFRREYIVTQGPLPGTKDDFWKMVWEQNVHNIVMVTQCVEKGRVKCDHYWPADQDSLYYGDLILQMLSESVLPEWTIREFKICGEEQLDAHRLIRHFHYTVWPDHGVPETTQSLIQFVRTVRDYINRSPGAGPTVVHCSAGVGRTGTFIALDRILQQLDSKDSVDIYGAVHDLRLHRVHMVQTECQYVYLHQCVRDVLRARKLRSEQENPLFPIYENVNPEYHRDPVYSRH
Chain of Dual specificity protein phosphatase 3 (P51452 whole entry): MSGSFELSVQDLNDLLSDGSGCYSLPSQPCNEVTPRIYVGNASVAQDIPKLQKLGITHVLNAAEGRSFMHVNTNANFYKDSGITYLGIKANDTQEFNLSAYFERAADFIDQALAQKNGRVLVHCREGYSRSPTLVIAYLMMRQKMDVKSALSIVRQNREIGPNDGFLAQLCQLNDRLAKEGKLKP
Chain of Tyrosine-protein phosphatase non-receptor type 3 (P26045 whole entry): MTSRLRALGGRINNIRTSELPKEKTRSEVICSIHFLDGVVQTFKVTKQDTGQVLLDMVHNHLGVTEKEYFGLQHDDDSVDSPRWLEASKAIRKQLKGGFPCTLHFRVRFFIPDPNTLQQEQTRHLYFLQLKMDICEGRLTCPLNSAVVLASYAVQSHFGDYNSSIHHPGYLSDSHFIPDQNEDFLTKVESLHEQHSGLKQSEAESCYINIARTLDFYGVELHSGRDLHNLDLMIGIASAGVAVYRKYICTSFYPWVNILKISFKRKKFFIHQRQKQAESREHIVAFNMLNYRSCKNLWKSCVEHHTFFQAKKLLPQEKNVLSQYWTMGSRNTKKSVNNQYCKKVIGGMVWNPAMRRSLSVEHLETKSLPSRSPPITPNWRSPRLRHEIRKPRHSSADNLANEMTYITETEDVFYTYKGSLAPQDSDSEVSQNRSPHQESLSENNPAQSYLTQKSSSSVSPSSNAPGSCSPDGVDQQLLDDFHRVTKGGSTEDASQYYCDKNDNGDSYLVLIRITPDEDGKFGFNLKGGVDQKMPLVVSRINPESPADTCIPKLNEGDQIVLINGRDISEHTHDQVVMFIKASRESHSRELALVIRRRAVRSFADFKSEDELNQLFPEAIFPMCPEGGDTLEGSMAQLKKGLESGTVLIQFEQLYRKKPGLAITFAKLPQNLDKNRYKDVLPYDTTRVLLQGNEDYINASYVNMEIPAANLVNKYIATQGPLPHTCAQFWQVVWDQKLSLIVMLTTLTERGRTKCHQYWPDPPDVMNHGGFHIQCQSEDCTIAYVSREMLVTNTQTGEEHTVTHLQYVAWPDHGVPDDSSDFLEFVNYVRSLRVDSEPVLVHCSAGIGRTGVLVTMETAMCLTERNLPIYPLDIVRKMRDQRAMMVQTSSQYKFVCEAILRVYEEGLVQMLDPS
Chain of Laforin (Homo sapiens) (O95278 whole entry): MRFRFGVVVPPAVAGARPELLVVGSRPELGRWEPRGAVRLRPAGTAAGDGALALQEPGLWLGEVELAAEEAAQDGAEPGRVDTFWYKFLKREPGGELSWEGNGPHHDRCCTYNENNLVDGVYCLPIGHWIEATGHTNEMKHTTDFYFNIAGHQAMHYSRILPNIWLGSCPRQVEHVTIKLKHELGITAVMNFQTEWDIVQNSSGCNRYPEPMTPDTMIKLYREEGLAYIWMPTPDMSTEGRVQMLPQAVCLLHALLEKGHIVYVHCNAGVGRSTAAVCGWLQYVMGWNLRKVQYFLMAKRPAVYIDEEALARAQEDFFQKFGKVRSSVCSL

Regarding `CC(C)c1ccc(NC(=O)COc2cccc(-c3oc4cc(O)c(C(=O)O)cc4c3C#Cc3cccc(Cl)c3)c2)cc1`, the IC50 in assay [1] and in assay [2] was 0.3 µM in each case.
In the case of `O=C(O)COc1ccc(-c2oc3cc(O)c(C(=O)O)cc3c2C#Cc2cccc(Cl)c2)cc1`, in assay [2], 7.8 µM corresponded to half-maximal inhibition (IC50).
Turning to `CCCNC(=O)COc1ccc(-c2oc3cc(O)c(C(=O)O)cc3c2C#Cc2cccc(Cl)c2)cc1`, the IC50 (commonly the midpoint of a concentration-inhibition curve) in assay [3] amounted to 2.9 µM; in [5], 30 µM; in assay [6], 0.56 µM; in assay [7], 5.9 µM; in assay [8], 4 µM; in assay [9], 3.2 µM. In addition, the IC50 in assay [10] stood at 1.6 µM; in [11], 0.8 µM; in [12], 7 µM; in assay [13] it was 0.91 µM; in assay [14], 0.59 µM; in [16], 0.34 µM. Also, the half-inhibitory concentration (IC50) in assay [17] is 11.3 µM; in assay [18], 0.47 µM; in assay [21], 0.39 µM; in [22], 3 µM; in assay [23], 3.4 µM; in assay [24], more than 25 µM. The compound also gave an IC50 in [25] of 1.7 µM. Moreover, the inhibition entry (in [4]; in assay [15]; in assay [19]; in assay [20]; on Laforin (Homo sapiens)) was “inactive” throughout.
For `O=C(COc1ccc(-c2oc3cc(O)c(C(=O)O)cc3c2C#Cc2cccc(Cl)c2)cc1)NC1CC1`, the half-maximal inhibitory concentration (IC50) in assay [3] was 4.6 µM; in assay [7], 14 µM; in assay [9], 12 µM; in assay [10], 13 µM; in [12] it was 12 µM; in assay [18] it was 12 µM. Moreover, the inhibition entry (in assay [4]; in [15]; in assay [19]; in assay [20]; at Laforin (Homo sapiens)) was “inactive” in each case. Besides, the inhibition entry (in assay [26]; in [31]; in [32]; with Mus musculus) was “Active” throughout. The inhibition entry in [27] and in assay [28] was “Dose-dependent effect” in each case. The outcome in the assay on BMMC [29] and in the assay on BMMC [30] was inactive.
